Experimental data reported in patent US20080194574A1, “Pyrazine Derivatives As Effective Compounds Against Infectious Diseases” (AXXIMA PHARMACEUTICALS AG, priority 2003, published 2008).

Target: T1, viral kinase pUL-97 (Human cytomegalovirus, UniProt P16788)
T1 construct: The pUL-97 gene was cloned into a baculovirus vector; GST (glutathione S-transferase) (N); made in house; host or cells: Sf9 insect cells, baculovirus
Test: UL97 kinase assay on Immobilon plate
Type: biochemical
Settings: inhibition of UL 97 kinase activity; class by IC50 / % inhibition at 10 μM or 100 μM; read-out: Activity Class [A, B, C]
Outline: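 Compound was titrated into a radiometric reaction of Sf9-expressed GST-UL97 kinase, incubated 1 h at 30 °C in Tris-HCl pH 7.5/MnCl2/DTT buffer before EDTA stop. MBP substrate and ATP (3 μM in the added assay buffer) were supplied with γ-[33P]ATP. Labelled product bound to Immobilon filter was washed and counted by scintillation.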

T1 sequence (P16788 whole entry): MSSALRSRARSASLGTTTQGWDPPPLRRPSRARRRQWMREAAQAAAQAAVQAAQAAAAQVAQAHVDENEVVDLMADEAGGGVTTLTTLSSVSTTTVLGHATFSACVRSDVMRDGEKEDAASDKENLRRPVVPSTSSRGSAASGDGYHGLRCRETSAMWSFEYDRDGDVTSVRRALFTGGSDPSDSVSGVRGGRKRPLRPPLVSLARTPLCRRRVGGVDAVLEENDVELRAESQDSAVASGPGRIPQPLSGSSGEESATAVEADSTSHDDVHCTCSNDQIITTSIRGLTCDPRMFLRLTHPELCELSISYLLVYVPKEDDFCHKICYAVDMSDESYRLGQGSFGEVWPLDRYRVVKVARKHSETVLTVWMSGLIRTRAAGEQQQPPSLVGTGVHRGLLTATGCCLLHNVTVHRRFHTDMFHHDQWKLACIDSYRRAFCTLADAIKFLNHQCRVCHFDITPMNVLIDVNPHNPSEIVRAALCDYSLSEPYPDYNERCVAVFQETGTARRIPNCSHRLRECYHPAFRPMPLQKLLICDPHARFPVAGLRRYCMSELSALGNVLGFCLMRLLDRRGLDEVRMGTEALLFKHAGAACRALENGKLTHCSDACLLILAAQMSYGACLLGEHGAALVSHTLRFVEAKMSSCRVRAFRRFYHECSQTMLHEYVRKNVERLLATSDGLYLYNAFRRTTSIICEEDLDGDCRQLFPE

Q: `Fc1ccc(N2CCN(c3cncc(-c4cc5ccccc5s4)n3)CC2)c(F)c1` [compound 272, 6′-Benzo[b]thiophen-2-yl-4-(2,4-difluoro-phenyl)-3,4,5,6-tetrahydro-2H-[1,2′]bipyrazinyl] was tested. Which IC50 did it give?
A: Its IC50 is 1 to 10 µM.

Q: For `c1ccc(N2CCN(c3cncc(-c4cccc5ccccc45)n3)CC2)cc1` [compound 246, 6′-Naphthalen-1-yl-4-phenyl-3,4,5,6-tetrahydro-2H-[1,2′]bipyrazinyl], which IC50 is on record?
A: Its IC50 is 10 to 100 µM.

Q: For `COc1ccc(-c2cncc(N3CCN(c4ccc(Cl)c(Cl)c4)CC3)n2)cc1OC` [compound 371, 4-(3,4-Dichloro-phenyl)-6′-(3,4-dimethoxy-phenyl)-3,4,5,6-tetrahydro-2H-[1,2′]bipyrazinyl], which IC50 is on record?
A: The IC50 was 10 to 100 µM.

Q: `c1ccc2c(-c3cncc(N4CCN(c5cnccn5)CC4)n3)csc2c1` [compound 332, 6-Benzo[b]thiophen-3-yl-2′,3′,5′,6′-tetrahydro-[2,1′;4′,2″]terpyrazine] was tested. Which IC50 did it give?
A: Its IC50 is < 1 µM.

Q: How did the IC50 turn out when `COc1ccc(-c2cncc(N3CCC(c4ccccc4)CC3)n2)cc1F` [compound 278, 2-(3-Fluoro-4-methoxy-phenyl)-6-(4-phenyl-piperidin-1-yl)-pyrazine] was run?
A: The IC50 was 10 to 100 µM.

Q: Which IC50 does the source give for `Cc1cccc(-c2cncc(N3CCN(c4cnccn4)CC3)n2)c1` [compound 329, 6-m-Tolyl-2′,3′,5′,6′-tetrahydro-[2,1′;4′,2″]terpyrazine] here?
A: The IC50 was 1 to 10 µM.

Q: `Cc1cccc(N2CCN(c3cncc(-c4ccoc4)n3)CC2)c1C` [compound 346, 4-(2,3-Dimethyl-phenyl)-6′-furan-3-yl-3,4,5,6-tetrahydro-2H-[1,2′]bipyrazinyl] was tested. Which IC50 did it give?
A: The IC50 was 10 to 100 µM.

Q: For `COc1ccc(N2CCN(c3cncc(-c4cccc(C)c4)n3)CC2)cc1OC` [compound 223, 4-(3,4-Dimethoxy-phenyl)-6′-m-tolyl-3,4,5,6-tetrahydro-2H-[1,2′]bipyrazinyl], which IC50 is on record?
A: Its IC50 is 1 to 10 µM.

Same assay, conditions: inhibition of UL 97 kinase activity; class by IC50 / % inhibition at 10 or 100 μM; read-out: Activity Class [A, B, C]

Q: How did the IC50 turn out when `COc1cc(Nc2cncc(-c3cccc(F)c3)n2)cc(OC)c1OC` [Comp. 7, [6-(3-Fluoro-phenyl)-pyrazin-2-yl]-(3,4,5-trimethoxy-phenyl)-amine] was run?
A: Its IC50 is 1 to 10 µM.

Q: For `Oc1ccc(-c2cncc(Nc3cccc(C(F)(F)F)c3)n2)cc1` [compound 29, 4-[6-(3-Trifluoromethyl-phenylamino)-pyrazin-2-yl]-phenol], which IC50 is on record?
A: The IC50 was < 1 µM.

Q: For `COc1ccc(N2CCN(c3cncc(-c4cc(C)cc(C)c4)n3)CC2)cc1OC` [compound 170, 4-(3,4-Dimethoxy-phenyl)-6′-(3,5-dimethyl-phenyl)-3,4,5,6-tetrahydro-2H-[1,2′]bipyrazinyl], which IC50 is on record?
A: Its IC50 is 10 to 100 µM.

Q: With `Fc1ccc(-c2cncc(N3CCN(c4ccc(F)cc4)CC3)n2)cc1` [compound 138, 4,6′-Bis-(4-fluoro-phenyl)-3,4,5,6-tetrahydro-2H-[1,2′]bipyrazinyl] as the molecule, how does the IC50 read?
A: The IC50 was 10 to 100 µM.

Q: How did the IC50 turn out when `NC(=O)c1ccc(-c2cncc(N3CCN(c4ccccc4)CC3)n2)cc1` [Comp. 68, 4-(4-Phenyl-3,4,5,6-tetrahydro-2H-[1,2′]bipyrazinyl-6′-yl)-benzamide] was run?
A: The IC50 was < 1 µM.

Q: For `Cc1ccccc1-c1cncc(N2CCN(c3ccccc3F)CC2)n1` [compound 124, 4-(2-Fluoro-phenyl)-6′-o-tolyl-3,4,5,6-tetrahydro-2H-[1,2′]bipyrazinyl], which IC50 is on record?
A: Its IC50 is 10 to 100 µM.

Q: With `NC(=O)c1ccc(-c2cncc(NCc3ccccc3)n2)cc1` [compound 28, 4-(6-Benzylamino-pyrazin-2-yl)-benzamide] as the molecule, how does the IC50 read?
A: The IC50 was < 1 µM.

Q: `CCCNc1cncc(-c2ccc(C(N)=O)cc2)n1` [compound 25, 4-(6-Propylamino-pyrazin-2-yl)-benzamide] was tested. Which IC50 did it give?
A: Its IC50 is < 1 µM.

Q: With `CC(=O)c1ccc(-c2cncc(N3CCN(c4ccncc4)CC3)n2)cc1` [compound 133, 1-[4-(4-Pyridin-4-yl-3,4,5,6-tetrahydro-2H-[1,2′]bipyrazinyl-6′-yl)-phenyl]-ethanone] as the molecule, how does the IC50 read?
A: The IC50 was 1 to 10 µM.

Q: For `CN(C)c1ccc(-c2cncc(N3CCN(c4cccc(Cl)c4)CC3)n2)cc1` [compound 182, {4-[4-(3-Chloro-phenyl)-3,4,5,6-tetrahydro-2H-[1,2′]bipyrazinyl-6′-yl]-phenyl}-dimethyl-amine], which IC50 is on record?
A: The IC50 was 10 to 100 µM.

Q: For `COc1ccc(N2CCN(c3cncc(-c4ccc(F)cc4F)n3)CC2)cc1OC` [compound 41, 6′-(2,4-Difluoro-phenyl)-4-(3,4-dimethoxy-phenyl)-3,4,5,6-tetrahydro-2H-[1,2′]bipyrazinyl], which IC50 is on record?
A: Its IC50 is 10 to 100 µM.

Q: How did the IC50 turn out when `COc1ccc(N2CCN(c3cncc(-c4ccccc4Oc4ccccc4)n3)CC2)cc1OC` [compound 174, 4-(3,4-Dimethoxy-phenyl)-6′-(2-phenoxy-phenyl)-3,4,5,6-tetrahydro-2H-[1,2′]bipyrazinyl] was run?
A: Its IC50 is 10 to 100 µM.

Q: Which IC50 does the source give for `FC(F)(F)c1cc(-c2cncc(N3CCN(c4ccncc4)CC3)n2)cc(C(F)(F)F)c1` [compound 164, 6′-(3,5-Bis-trifluoromethyl-phenyl)-4-pyridin-4-yl-3,4,5,6-tetrahydro-2H-[1,2′]bipyrazinyl] here?
A: Its IC50 is 10 to 100 µM.

Target: RICK (Homo sapiens, UniProt O43353)
Sequence (O43353 whole entry, species assumed): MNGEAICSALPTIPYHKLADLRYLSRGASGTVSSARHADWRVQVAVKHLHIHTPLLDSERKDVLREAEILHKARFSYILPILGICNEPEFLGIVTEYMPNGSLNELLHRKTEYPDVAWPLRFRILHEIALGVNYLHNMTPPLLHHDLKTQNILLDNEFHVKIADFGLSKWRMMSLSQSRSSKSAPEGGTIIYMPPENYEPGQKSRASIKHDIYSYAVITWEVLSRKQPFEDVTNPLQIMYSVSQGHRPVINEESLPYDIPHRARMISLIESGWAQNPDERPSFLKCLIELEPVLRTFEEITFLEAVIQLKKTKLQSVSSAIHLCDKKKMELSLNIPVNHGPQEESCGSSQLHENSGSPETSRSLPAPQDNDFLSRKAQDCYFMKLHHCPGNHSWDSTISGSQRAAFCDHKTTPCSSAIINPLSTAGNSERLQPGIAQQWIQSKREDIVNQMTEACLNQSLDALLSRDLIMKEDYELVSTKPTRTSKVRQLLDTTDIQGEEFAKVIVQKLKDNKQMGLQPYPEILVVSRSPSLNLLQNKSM
Test: General kinase assay protocol (33P-ATP, MBP substrate, filter plate): RICK
Type: biochemical
Settings: inhibition at concentration 10 μM; read-out: Inhibitory effect on Target RICK
Excerpt: General Assay Protocol for all Kinases
(For UL97 a special UL97 kinase assay was used as described below.)

Q: With `Nc1cccc(-c2cncc(Nc3ccc(Cl)cc3)n2)c1` [compound 380] as the molecule, how does the inhibition at 10 µM read?
A: Its inhibition at 10 µM is > 50%.

Q: How did the inhibition at 10 µM turn out when `COc1cc(Nc2cncc(-c3ccc4ccccc4c3)n2)cc(OC)c1OC` [compound 402] was run?
A: Its inhibition at 10 µM is > 75%.

Q: With `COc1ccc(-c2cncc(Nc3cccc(C#N)c3)n2)cc1` [compound 388] as the molecule, how does the inhibition at 10 µM read?
A: Its inhibition at 10 µM is > 50%.

Q: How did the inhibition at 10 µM turn out when `COc1cc(Nc2cncc(-c3cccc(F)c3)n2)cc(OC)c1OC` [Comp. 7, [6-(3-Fluoro-phenyl)-pyrazin-2-yl]-(3,4,5-trimethoxy-phenyl)-amine] was run?
A: The inhibition at 10 µM was > 50%.

Q: With `CN(C)c1cccc(-c2cncc(Nc3cccc(C#N)c3)n2)c1` [compound 391] as the molecule, how does the inhibition at 10 µM read?
A: The inhibition at 10 µM was > 50%.

Q: How did the inhibition at 10 µM turn out when `Oc1cccc(-c2cncc(Nc3ccc(F)c(Cl)c3)n2)c1` [compound 417] was run?
A: The inhibition at 10 µM was > 50%.

Q: With `COc1cc(Nc2cncc(-c3cccc(O)c3)n2)cc(OC)c1OC` [compound 423] as the molecule, how does the inhibition at 10 µM read?
A: Its inhibition at 10 µM is > 50%.

Q: How did the inhibition at 10 µM turn out when `Oc1ccc(-c2cncc(Nc3cccc(C(F)(F)F)c3)n2)cc1` [compound 29, 4-[6-(3-Trifluoromethyl-phenylamino)-pyrazin-2-yl]-phenol] was run?
A: Its inhibition at 10 µM is > 50%.

Q: With `COc1cc(Nc2cncc(-c3ccc(N)cc3)n2)cc(OC)c1OC` [compound 398] as the molecule, how does the inhibition at 10 µM read?
A: Its inhibition at 10 µM is > 75%.

Q: For `COc1cc(-c2cncc(Nc3ccc(F)c(Cl)c3)n2)cc(OC)c1OC` [compound 382], which inhibition at 10 µM is on record?
A: Its inhibition at 10 µM is > 50%.

Q: With `COc1cccc(-c2cnc(N)c(Nc3ccc4[nH]ccc4c3)n2)c1` [compound 432] as the molecule, how does the inhibition at 10 µM read?
A: Its inhibition at 10 µM is > 75%.

Q: Which inhibition at 10 µM does the source give for `OCc1ccccc1-c1cncc(Nc2ccc(Cl)cc2)n1` [compound 420] here?
A: The inhibition at 10 µM was > 50%.

Q: Which inhibition at 10 µM does the source give for `Oc1ccc(-c2cncc(Nc3ccccc3)n2)cc1` [compound 386] here?
A: The inhibition at 10 µM was > 75%.

Q: With `Nc1ncc(-c2ccc(O)cc2)nc1Nc1ccc2[nH]ccc2c1` [compound 428] as the molecule, how does the inhibition at 10 µM read?
A: The inhibition at 10 µM was > 50%.

Q: Which inhibition at 10 µM does the source give for `Cc1ccc(Nc2cncc(-c3ccc(F)cc3F)n2)cc1NS(C)(=O)=O` [compound 410] here?
A: The inhibition at 10 µM was > 50%.
